From ChEMBL document CHEMBL1201862, “PubChem BioAssay data set” (2004)
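Assay format: 96-well plates, 48-hour exposure. GI50 = concentration required for 50% inhibition of growth.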 Active and inactive are the calls of the source. Rule as the data show it: active = GI50 up to about 1.1 µM and inactive = higher.

How the values were obtained:
Test in all cases: DTP human tumour cell line panel, 48 h
[1] = system: SF-295
[2] = system: EKVX
[3] = system: T47D
[4] = system: DMS-273
[5] = system: NCI-H460
[6] = system: OVCAR-5
[7] = system: CAKI-1
[8] = system: SN12C
[9] = system: ACHN
[10] = system: UACC-257
[11] = system: Hs-578T
[12] = system: SNB-75
[13] = system: SF-268
[14] = system: M14
[15] = system: MDA-N
[16] = system: A498
[17] = system: OVCAR-4
[18] = system: SK-MEL-5
[19] = system: MCF7
[20] = system: KM-20L2
[21] = system: Malme-3M
[22] = system: COLO 205
[23] = system: OVCAR-8
[24] = system: 786-0
[25] = system: IGROV-1
[26] = system: BT-549
[27] = system: SK-MEL-2
[28] = system: HCT-15
[29] = system: LOX IMVI
[30] = system: OVCAR-3
[31] = system: DMS-114
[32] = system: SK-MEL-28
[33] = system: SR
[34] = system: HOP-62
[35] = system: DU-145
[36] = system: K562
[37] = system: NCI-H23
[38] = system: A549
[39] = system: HCT-116
[40] = system: UACC-62
[41] = system: U-251
[42] = system: LXFL 529
[43] = system: M19-MEL
[44] = system: RXF 393
[45] = system: HL-60
[46] = system: MDA-MB-231
[47] = system: UO-31
[48] = system: SNB-78
[49] = system: PC-3
[50] = system: HCC 2998
[51] = system: HOP-92
[52] = system: SK-OV-3
[53] = system: KM12
[54] = system: CCRF-CEM
[55] = system: NCI-H226
[56] = system: MOLT-4
[57] = system: SNB-19
[58] = system: NCI-H522
[59] = system: SW-620
[60] = system: MDA-MB-435
[61] = system: HT-29
[62] = system: NCI/ADR-RES
[63] = system: SF-539
[64] = system: RPMI-8226
[65] = system: DLD-1
[66] = system: HOP-18
[67] = system: TK-10
[68] = system: XF498

## CC(=O)OC(C)C1C2=C(C(=O)CC1(C)O)C(=O)c1c(ccc(-c3ccc4c(c3O)C(=O)C3=C(C4=O)C(C(C)OC(C)=O)C(C)(O)CC3=O)c1O)C2=O (stereo not drawn)
[1]
  GI50: 11.6 µM (inactive)
[2]
  GI50: 4.36 µM (inactive)
[3]
  GI50: 0.78 µM (active)
[4]
  GI50: 1.52 µM (inactive)
[5]
  GI50: 6.58 µM (inactive)
[6]
  GI50: 5.97 µM (inactive)
[7]
  GI50: 2.82 µM (inactive)
[8]
  GI50: 2.82 µM (inactive)
[9]
  GI50: 1.73 µM (inactive)
[10]
  GI50: 1.75 µM (inactive)
[11]
  GI50: 2.11 µM (inactive)
[12]
  GI50: 2.49 µM (inactive)
[13]
  GI50: 2.95 µM (inactive)
[14]
  GI50: 2.11 µM (inactive)
[15]
  GI50: 3.15 µM (inactive)
[16]
  GI50: 2.86 µM (inactive)
[17]
  GI50: 2.24 µM (inactive)
[18]
  GI50: 3.19 µM (inactive)
[19]
  GI50: 1.53 µM (inactive)
[20]
  GI50: 2.04 µM (inactive)
[21]
  GI50: 0.724 µM (active)
[22]
  GI50: 0.692 µM (active)
[23]
  GI50: 2.45 µM (inactive)
[24]
  GI50: 1.83 µM (inactive)
[25]
  GI50: 9.12 µM (inactive)
[26]
  GI50: 1.28 µM (inactive)
[27]
  GI50: 1.75 µM (inactive)
[28]
  GI50: 2.58 µM
[29]
  GI50: 1.42 µM (inactive)
[30]
  GI50: 2.2 µM (inactive)
[31]
  GI50: 0.286 µM (active)
[32]
  GI50: 2.12 µM (inactive)
[33]
  GI50: 1.1 µM (active)
[34]
  GI50: 18.5 µM (inactive)
[35]
  GI50: 5.78 µM (inactive)
[36]
  GI50: 0.701 µM (active)
[37]
  GI50: 1.47 µM (inactive)
[38]
  GI50: 5.47 µM (inactive)
[39]
  GI50: 0.521 µM (active)
[40]
  GI50: 1.69 µM (inactive)
[41]
  GI50: 1.72 µM (inactive)
[42]
  GI50: 0.428 µM (active)
[43]
  GI50: 1.36 µM (inactive)
[44]
  GI50: 1.74 µM (inactive)
[45]
  GI50: 0.398 µM (active)
[46]
  GI50: 2.42 µM (inactive)
[47]
  GI50: 3.35 µM (inactive)
[48]
  GI50: 3.18 µM (inactive)
[49]
  GI50: 3.1 µM (inactive)
[50]
  GI50: 10.7 µM (inactive)
[51]
  GI50: 1.57 µM (inactive)
[52]
  GI50: 10.8 µM (inactive)
[53]
  GI50: 3.19 µM (inactive)
[54]
  GI50: 0.308 µM (active)
[55]
  GI50: 9.33 µM (inactive)
[56]
  GI50: 1.12 µM (inactive)
[57]
  GI50: 11.7 µM (inactive)
[58]
  GI50: 1.56 µM (inactive)
[59]
  GI50: 0.667 µM (active)
[60]
  GI50: 2.14 µM (inactive)
[61]
  GI50: 1.72 µM (inactive)
[62]
  GI50: 15.8 µM (inactive)
[63]
  GI50: 1.92 µM (inactive)
[64]
  GI50: 0.483 µM (active)
[65]
  GI50: 1.11 µM (active)
[66]
  GI50: 0.457 µM (active)
[67]
  GI50: 2.19 µM (inactive)

## O=C(OC/C=C1C=C(OC(=O)c2ccccc2)/C(=N/N(C(=O)c2ccccc2)c2ccccc2)O\1)c1ccccc1
[7]
  GI50: < 0.01 µM (active)
[31]
  GI50: 12.8 µM (inactive)
[33]
  GI50: < 0.01 µM (active)
[36]
  GI50: < 0.01 µM (active)
[44]
  GI50: 2.12 µM (inactive)
[68]
  GI50: 15.8 µM (inactive)
[48]
  GI50: 26.3 µM (inactive)
[50]
  GI50: < 0.01 µM (active)
[53]
  GI50: < 0.01 µM (active)
[55]
  GI50: 0.512 µM (active)
[56]
  GI50: < 0.01 µM (active)
[57]
  GI50: < 0.01 µM (active)
[64]
  GI50: < 0.01 µM (active)
[66]
  GI50: < 0.01 µM (active)

## CSc1nnc(COc2ccc(Cl)cc2)o1
[1]
  GI50: > 100 µM (inactive)
[2]
  GI50: > 100 µM (inactive)
[4]
  GI50: > 100 µM (inactive)
[5]
  GI50: > 100 µM (inactive)
[6]
  GI50: > 100 µM (inactive)
[7]
  GI50: > 100 µM (inactive)
[8]
  GI50: > 100 µM (inactive)
[9]
  GI50: > 100 µM (inactive)
[10]
  GI50: > 100 µM (inactive)
[12]
  GI50: > 100 µM (inactive)
[13]
  GI50: > 100 µM (inactive)
[14]
  GI50: > 100 µM (inactive)
[16]
  GI50: > 100 µM (inactive)
[17]
  GI50: > 100 µM (inactive)
[18]
  GI50: > 100 µM (inactive)
[20]
  GI50: > 100 µM (inactive)
[21]
  GI50: > 100 µM (inactive)
[22]
  GI50: > 100 µM (inactive)
[23]
  GI50: > 100 µM (inactive)
[24]
  GI50: > 100 µM (inactive)
[25]
  GI50: > 100 µM (inactive)
[28]
  GI50: > 100 µM
[29]
  GI50: > 100 µM (inactive)
[30]
  GI50: > 100 µM (inactive)
[31]
  GI50: > 100 µM (inactive)
[32]
  GI50: > 100 µM (inactive)
[34]
  GI50: > 100 µM (inactive)
[37]
  GI50: > 100 µM (inactive)
[38]
  GI50: > 100 µM (inactive)
[39]
  GI50: > 100 µM (inactive)
[40]
  GI50: > 100 µM (inactive)
[41]
  GI50: > 100 µM (inactive)
[42]
  GI50: > 100 µM (inactive)
[43]
  GI50: > 100 µM (inactive)
[44]
  GI50: > 100 µM (inactive)
[47]
  GI50: > 100 µM (inactive)
[68]
  GI50: > 100 µM (inactive)
[48]
  GI50: > 100 µM (inactive)
[52]
  GI50: > 100 µM (inactive)
[53]
  GI50: > 100 µM (inactive)
[57]
  GI50: > 100 µM (inactive)
[58]
  GI50: > 100 µM (inactive)
[59]
  GI50: > 100 µM (inactive)
[61]
  GI50: > 100 µM (inactive)
[63]
  GI50: > 100 µM (inactive)
[65]
  GI50: > 100 µM (inactive)
[67]
  GI50: > 100 µM (inactive)
